Consider 12 compounds from US6225478A, “Iridoid derivatives and neovascularization inhibitors containing the same as active ingredient” (Tsumura & Co., priority 1999, dated 2001).

≈ marks a conversion by molar mass, not a printed value.

Common to all, as to assay type: cell-based
In assay [1] the test system is human umbilical-vein endothelial cells (HUVEC). The assay is described as follows: Cell Proliferation Assay (CPA) Test, HUVEC, MTT. As to conditions: Homo sapiens, M199 (2+) medium, read-out: CPA (IC50 μg/ml). As for the experimental part: (§1) Furthermore, the sample liquids of compounds used in the CPA and CMA tests were prepared in the manner described below. Firstly, after weighing out each compound, a calculated amount of DMSO was added. After dissolving the compound in the DMSO, phosphate buffered physiological saline (PBS (-)) was added to bring the sample concentration to 1 mg/ml in PBS (-). The amount of DMSO used to dissolve the compounds was adjusted in advance to that the concentration of DMSO at that time was 5%. The resulting liquids were diluted 10-fold with 5% DMSO-PBS (-) solution to prepare sample solutions having a concentration of 0.1 mg/ml. In the TFA test, 320 μl of the prepared 1 mg/ml sample solutions were removed followed by addition of 680 μl of PBS (-) to prepare samples having a concentration of […]. Moreover, 100 μl of this solution was removed followed by addition of 900 μl of PBS (-) to dilute 10-fold and prepare samples having a concentration of 1 μg/ml. P [Cell Proliferation Assay (CPA) Test]
100 μl of the 7th subculture obtained from first generation human umbilical-vein endothelial cells (HUVEC) were disseminated in the wells (N=3) of a 96-well plate (Iwaki, Cat. #4860-010) at a cell concentration of 5×10^4 cells/ml. M-199 medium containing +20% FCS, 10 ng/ml of b-FGF and 10 ng/ml of EGF (abbreviated as "M199 (2+)") was used for the medium.
After culturing for 24 hours at 37° C. in the presence of 5% CO2 under the above conditions, 20 μl/well of MTT solution (solution containing 5 mg/ml of PBS (-)) were added to the control well followed by accurately culturing for 4 hours at 37° C. in the presence of 5% CO2. Following completion of culturing, 100 μl/well of a stop solution (0.001 N aqueous HCl solution containing 10% SDS) were added. On the other hand, 10 μl/well of sample solutions at concentrations of 1 mg/ml and 0.1 mg/ml were added to the other wells.
After culturing for 24 hours at 37° C. in the presence of 5% CO2, the medium was replaced and 100 μl/well of M199 (2+) were added. The samples were also replaced in each well at this time.
Moreover, after additionally culturing for 48 hours at 37° C. in the presence of 5% CO2, 20 μl/well of MTT solution were added to the wells containing sample and the control well followed by accurately culturing for 4 hours at 37° C. and adding 100 μl/well of stop solution.

Assay [2] shares this test system. The assay is described as follows: Cell Migration Assay (CMA) Test, HUVEC (% relative to control). As to conditions: Homo sapiens, HUVEC, 24 hours, 60% or less = remarkable inhibition, read-out: CMA (% relative to control); for activity at 1 µg/mL: 1 μg/ml; for activity at 10 µg/mL: 10 μg/ml. As for the experimental part:
as §1
After disseminating the 7th subculture of HUVEC obtained from the first generation in the same manner as above at 4 ml/well (3.0×10^5 cells/well) in a collagen-coated 6-well plate (NUNC), the cells were cultured for 48 hours at 37° C. in the presence of 5% CO2. The cells reached nearly a completely confluent state as a result of this culturing.
A double-edged, disposable razor blade was divided into four sections, of which one of those sections was pinched between a pair of forceps. Using this piece of razor blade, the cell surface in the above confluent state was scraped off. Two areas of the cell surface were scraped off in each well.
After washing the surface of the wells from which the cells had been scraped off with medium, 4.0 ml of fresh M199 (2+) medium were added followed by addition of 40 μl or 4 μl of sample solution (1 mg/ml). The cells were cultured for 24 hours at 37° C. in the presence of 5% CO2. After discarding the culture liquid, the cells were fixed for 30 minutes with methanol. Next, after staining the cells for 4 hours with Giemsa stain, the plates were washed with tap water and air dried.
Measurement of cell migration was performed by microscopically counting the number of cells that had newly migrated within the range of a 1 mm×1 mm block. […] The total number of cells counted in blocks 1 through 5 were then totaled to determine the overall total number of cells. Four fields were counted for each well.
Evaluation was performed determining the cell migration (%) according to the following formula.
Cell migration rate=number of migrating cells to which sample was added×100/number of migrating of control (+)
Control (+) indicates the number of migrating cells in the control well containing M199 (2+).

Assay [3] shares this test system. The assay is described as follows: Tube Formation Assay (TFA) Test, HUVEC in collagen gel. The settings on record: Homo sapiens, HUVEC, 20 h, 20 hours, 40% or less judged remarkable, read-out: TFA (inhibition rate, %); for inhibition at 1 µg/mL: 1 μg/ml; for inhibition at 10 µg/mL: 10 μg/ml. The method in brief:
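Inhibition rate (%) of tube formation is computed from tube lengths against control (+) and control (-), measured after 20 h at 37 °C in M-199 with 20% FCS, 30 ng/ml b-FGF and 0.1 μM PMA. Samples were applied to HUVEC on collagen and covered by a second collagen layer (double-layer gel).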

What is called inhibition is the relative decrease from the control value, in per cent. On to `CCN(CC)C(=O)C1=CO[C@@H](OC(=O)NC)[C@@H]2[C@@H]1C[C@@H]1O[C@]21C` [compound 19, (1S,4aS,6S,7R,7aR)-6,7-epoxy-1,4a,5,6,7,7a-hexahydro-7-methyl-1-(methylcarbamoyloxy) cyclopenta [c]-pyrane-4-carboxylic acid diethylamide], for which, in assay [1], the IC50 was more than 100 µg/mL. For the same compound, in assay [2], the activity at 1 µg/mL was determined as 96.4% and the activity at 10 µg/mL was 93.5%. In assay [3], the inhibition at 1 µg/mL turned out to be 23.6% and the inhibition at 10 µg/mL was found to be 21.3%.

For the compound `COC(=O)C1=CO[C@@H](OC(=O)NC(C)C)[C@@H]2[C@@H]1C[C@@H]1O[C@]21C` [compound 34, (1S,4aS,6S,7R,7aR)-6,7-epoxy-1,4a,5,6,7,7a-hexahydro-1-(isopropylcarbamoyloxy)-7-methylcyclopenta [c] pyrane-4-carboxylic acid methylester], the IC50 in assay [1] was more than 100 µg/mL. In assay [2], the activity at 1 µg/mL is 98.2% and the activity at 10 µg/mL amounted to 95.2%. Further, in assay [3], the inhibition at 1 µg/mL was 16.8% and the inhibition at 10 µg/mL is -14.1%.

For `CNC(=O)O[C@@H]1OCC(C(=O)OC)[C@H]2C[C@@H]3O[C@]3(C)C12` (stereo in doubt) [Compound 55, (1S,4R,4aS,6S,7R,7aR)-6,7-epoxy-7-methyl-1-(methylcarbamoyloxy)-1,3,4,4a,5,6,7,7a-octahydrocyclopenta [c] pyrane-4-carboxylic acid methylester], in assay [1], the IC50 is more than 100 µg/mL. In addition, in assay [2], the activity at 1 µg/mL was determined as 97.8% and the activity at 10 µg/mL was determined as 91.8%. Also, in assay [3], the inhibition at 1 µg/mL came to 13.9% and the inhibition at 10 µg/mL was found to be 3.8%.

With `COC(=O)C1=COC(OC(=O)Nc2cccc3ccccc23)C2C1CC1OC12C` [compound 37, (1S, 4aS,6S,7R,7aR)-6,7-epoxy-1,4a,5,6,7,7a-hexahydro-7-methyl-1-[(1-naphtyl)carbamoyloxy] cyclopenta [c] pyrane-4-carboxylic acid methylester], in assay [1], the IC50 was more than 100 µg/mL. Besides, in assay [2], the activity at 1 µg/mL is 102% and the activity at 10 µg/mL stood at 88.6%. In assay [3], the inhibition at 1 µg/mL worked out at 14.1% and the inhibition at 10 µg/mL amounted to 22.6%.

Regarding `CNC(=O)O[C@@H]1OC=C(C(=O)OC/C=C(\C)CCC=C(C)C)[C@H]2C[C@@H]3O[C@]3(C)[C@H]12` [compound 6, (1S,4aS,6S,7R,7aR)-6,7-epoxy-1,4a,5,6,7,7a-hexahydro-7-methyl-1-(methylcarbamoyloxy) cyclopenta [c]-pyrane-4-carboxylic acid geranyl ester], in assay [1], the IC50 is more than 100 µg/mL. In assay [2], the activity at 1 µg/mL is 106% and the activity at 10 µg/mL is 105%. For the same compound, in assay [3], the inhibition at 1 µg/mL is 24.2% and the inhibition at 10 µg/mL was 8.7%.

As to `COC(=O)C1=CO[C@@H](OC(=O)Nc2ccccc2)[C@@H]2[C@@H]1C[C@@H]1O[C@]21C` [compound 35, (1S,4aS,6S,7R,7aR)-6,7-epoxy-1,4a,5,6,7,7a-hexahydro-7-methyl-1-(phenylcarbamoyloxy) cyclopenta [c] pyrane-4-carboxylic acid methylester], the IC50 in assay [1] was more than 100 µg/mL. Moreover, in assay [2], the activity at 1 µg/mL is 84.4% and the activity at 10 µg/mL is 67.2%. Also, in assay [3], the inhibition at 1 µg/mL was -3.3% and the inhibition at 10 µg/mL was 20%.

For `C=CCCOC(=O)C1=CO[C@@H](OC(=O)NC)[C@@H]2[C@@H]1C[C@@H]1O[C@]21C` [compound 8, (1S,4aS,6S,7R,7aR)-6,7-epoxy-1,4a,5,6,7,7a-hexahydro-7-methyl-1-(methylcarbamoyloxy) cyclopenta [c]-pyrane-4-carboxylic acid 3-butenylester], the IC50 in assay [1] is 60.5 µg/mL (≈ 187 µM). Besides, in assay [2], the activity at 1 µg/mL is 75.4% and the activity at 10 µg/mL came to 60.5%. Further, in assay [3], the inhibition at 1 µg/mL worked out at 27.3% and the inhibition at 10 µg/mL turned out to be 93.2%.

On to `CNC(=O)OC1OC=C(C(=O)OCc2ccco2)C2CC3OC3(C)C12` [compound 10, (1S,4aS,6S,7R,7aR)-6,7-epoxy-1,4a,5,6,7,7a-hexahydro-7-methyl-1-(methylcarbamoyloxy) cyclopenta [c]-pyrane-4-carboxy-lic acid furfurylester], for which the IC50 in assay [1] came out at 93.3 µg/mL (≈ 267 µM). Further, in assay [2], the activity at 1 µg/mL came to 101% and the activity at 10 µg/mL is 103%. For the same compound, in assay [3], the inhibition at 1 µg/mL was 28.6% and the inhibition at 10 µg/mL turned out to be 27.7%.

With `CNC(=O)O[C@@H]1OC=C(C(=O)Oc2ccccc2)[C@H]2C[C@@H]3O[C@]3(C)[C@H]12` [compound 13, (1S,4aS,6S,7R,7aR)-6,7-epoxy-1,4a,5,6,7,7a-hexahydro-7-methyl-1-(methylcarbamoyloxy) cyclopenta [c]-pyrane-4-carboxylic acid phenylester], the IC50 in assay [1] was 53.3 µg/mL (≈ 154 µM). In assay [2], the activity at 1 µg/mL is 94.1% and the activity at 10 µg/mL amounted to 94%. Besides, in assay [3], the inhibition at 1 µg/mL is 36.3% and the inhibition at 10 µg/mL amounted to 36.8%.

In the case of `CNC(=O)O[C@@H]1OC=C(C(=O)OC)[C@H]2C[C@@H]3O[C@]3(CF)[C@@H]12` [compound 50, (1S,4aS,6S,7R,7aR)-6,7-epoxy-7-(fluoromethyl)-1-(methylcarbamoloxy)-1,4a,5,6,7,7a-hexahydrocyclopenta [c] pyrane-4-carboxylic acid methylester], the IC50 in assay [1] is more than 100 µg/mL. Moreover, in assay [2], the activity at 1 µg/mL worked out at 87.9% and the activity at 10 µg/mL is 63.5%. For the same compound, in assay [3], the inhibition at 1 µg/mL amounted to 9.5% and the inhibition at 10 µg/mL is 23.2%.

In the case of `CNC(=O)O[C@@H]1OC=C(C(=O)OC)[C@H]2C[C@@H]3O[C@]3(CCl)C12` (stereo in doubt) [compound 51, (1S,4aS,6S,7R,7aR)-6,7-epoxy-7-(chloromethyl)-1-(methylcarbamoyloxy)-1,4a,5,6,7,7a-hexahydrocyclopenta [c]pyrane-4-carboxylic acid methylester], the IC50 in assay [1] is more than 100 µg/mL. Further, in assay [2], the activity at 1 µg/mL came to 102% and the activity at 10 µg/mL came out at 101%. In assay [3], the inhibition at 1 µg/mL is 19.1% and the inhibition at 10 µg/mL was -1.4%.

For the compound `CNC(=O)OC1OC=C(C(=O)N(C)C)C2CC3OC3(C)C12` (stereo not drawn) [compound 18], in assay [1], the IC50 is more than 100 µg/mL. In assay [2], the activity at 1 µg/mL worked out at 90.3% and the activity at 10 µg/mL is 71.5%. In assay [3], the inhibition at 1 µg/mL stood at 28.6% and the inhibition at 10 µg/mL was 27.7%.
